Data from patent US8697858B2 (priority 2009, dated 2014).
Several values for one entry are separate records, joined by “and”; a condition that tells them apart may be missing. Equal values may be shown once. Read-outs that look alike come from different tables or passages of the source. In the oligonucleotide strings, read from the 5' end, every base follows the letter of its sugar. An asterisk marks phosphorothioate; unmarked linkages are phosphodiester. Other units and linkages are bracketed, terminal groups are in braces. A string of capitals states the bases alone. [PMO-N] = phosphorodiamidate morpholino subunit (N: the base); [pip] = piperazino phosphorodiamidate linkage (PMOplus)

Legend:
Format in all cases: in vivo, ferrets
[1] = system: oseltamivir-resistant H1N1 (SOIV) pandemic influenza virus; conditions: for Viral Titer / Viral Titer AUC: n = 8
[2] = system: oseltamivir-resistant H1N1 (SOIV) pandemic influenza virus
[3] = system: oseltamivir-resistant H1N1 (SOIV) pandemic influenza virus; remark: listed apart in the source
[4] = system: oseltamivir-resistant H1N1 (SOIV) pandemic influenza virus; remark: listed apart in the source
[5] = Post minus Pre, Tamiflu 5 mg/kg p.o. every 12 hours
[6] = Post, Tamiflu 5 mg/kg p.o. every 12 hours
[7] = Pre, Tamiflu 5 mg/kg p.o. every 12 hours

CCOC(=O)C1=C[C@@H](OC(CC)CC)[C@H](NC(C)=O)[C@@H](N)C1 [Tamiflu, Oseltamivir, reference compound]
Viral Titer ([1]; nasal wash, Day 1, Oseltamivir 5 mg/kg p.o. every 12 hours): 2.42 ± 0.58
Viral Titer ([1]; nasal wash, Day 3, Oseltamivir 5 mg/kg p.o. every 12 hours): 0.77 ± 0.73
Viral Titer ([1]; nasal wash, Day 5, Oseltamivir 5 mg/kg p.o. every 12 hours): 0.67 ± 0.67
Viral Titer ([1]; nasal wash, Day 8, Oseltamivir 5 mg/kg p.o. every 12 hours): 0.92 ± 0.37
Viral Titer AUC ([1]; nasal wash, Oseltamivir 5 mg/kg p.o. every 12 hours): 7.015
Macrophage Cellularity in Upper Respiratory Tract, Day 3 Peak ([2]; nasal wash, Day 3, Tamiflu 5 mg/kg p.o. every 12 hours): 7.91 ± 7.28
Macrophage Cellularity in Upper Respiratory Tract, Average ± Std Deviation ([2]; nasal wash, Tamiflu 5 mg/kg p.o. every 12 hours): 2.98 ± 2.71
Body Weight Change Difference [3, 5]: -6.1 g/day
Max Body Temperatures Difference [3, 5]: +1.3 ° F.
Body Weight Change Post [3, 6]: 8.5 ± 3.2 g/day
Max Body Temperatures Post [3, 6]: 105.7 ° F.
Body Weight Change Pre [3, 7]: 15.1 ± 0.4 g/day
Max Body Temperatures Pre [3, 7]: 104.4 ° F.
Clinical Scores ([3]; Tamiflu 5 mg/kg p.o. every 12 hours): 1.17 ± 0.25
lung congestion, alveolitis, infiltrating cells ([4]; AVI-7100 with or without oseltamivir, oseltamivir-only): significant congestion in the lung with marked alveolitis

AVI-7100: PMOplus CGGT+TAGAAGAC+TCATC+TTT, three (piperazino) phosphorodiamidate linkages ([PMO-C][PMO-G][PMO-G][PMO-T][pip][PMO-T][PMO-A][PMO-G][PMO-A][PMO-A][PMO-G][PMO-A][PMO-C][pip][PMO-T][PMO-C][PMO-A][PMO-T][PMO-C][pip][PMO-T][PMO-T][PMO-T])
viral titer in nasal wash, benefit in words ([1]; in vivo): Significant benefit
Viral Titer AUC ([1]; 10 mg/kg): 5.515
Viral Titer AUC ([1]; 30 mg/kg): 5.675
Macrophage Cellularity in Upper Respiratory Tract, Average ± Std Deviation ([2]; in vivo, ip, 10 mg/kg): 4.34 ± 3.82
Macrophage Cellularity in Upper Respiratory Tract, Day 3 Peak ([2]; in vivo, ip, 10 mg/kg): 3.88 ± 4.73
Macrophage Cellularity in Upper Respiratory Tract, Average ± Std Deviation ([2]; in vivo, ip, 30 mg/kg): 2.78 ± 2.97
Macrophage Cellularity in Upper Respiratory Tract, Day 3 Peak ([2]; in vivo, ip, 30 mg/kg): 1.59 ± 1.28
Clinical Scores ([3]; in vivo): 1.00 ± 0.00 and 1.11 ± 0.21
symptoms of influenza virus infection ([3]; in vivo): significantly reduces symptoms of influenza virus infection
Body Weight Change Difference ([3]; in vivo, ip, 10 mg/kg): -5.7 g/day
Body Weight Change Post ([3]; in vivo, ip, 10 mg/kg): 10.9 ± 1.5 g/day
Body Weight Change Pre ([3]; in vivo, ip, 10 mg/kg): 16.6 ± 0.8 g/day
Max Body Temperatures Difference ([3]; in vivo, ip, 10 mg/kg): +0.7 ° F.
Max Body Temperatures Post ([3]; in vivo, ip, 10 mg/kg): 106.1 ° F.
Max Body Temperatures Pre ([3]; in vivo, ip, 10 mg/kg): 105.4 ° F.
Body Weight Change Difference ([3]; in vivo, ip, 30 mg/kg): +0.8 g/day
Body Weight Change Post ([3]; in vivo, ip, 30 mg/kg): 12.6 ± 2.0 g/day
Body Weight Change Pre ([3]; in vivo, ip, 30 mg/kg): 11.8 ± 0.8 g/day
Max Body Temperatures Difference ([3]; in vivo, ip, 30 mg/kg): −0.5 ° F.
Max Body Temperatures Post ([3]; in vivo, ip, 30 mg/kg): 104.2 ° F.
Max Body Temperatures Pre ([3]; in vivo, ip, 30 mg/kg): 104.7 ° F.
lung congestion, alveolitis, infiltrating cells ([4]; in vivo): no congestion in the lung, only mild alveolitis, and few infiltrating cells
